Data: article PMC8453901, “GLPG1205, a GPR84 Modulator: Safety, Pharmacokinetics, and Pharmacodynamics in Healthy Subjects” (Clinical Pharmacology in Drug Development, 2021)
Entries after “also recorded” stand apart in the source; their conditions may differ.

Test system: CYP3A4
Assay: CYP3A4 induction by 6β-OH-cortisol/cortisol ratio in urine
Type: in vivo, human
Settings: 50 mg, 100 mg and 200/150 mg once daily; days -1 and 13
Method: The potential of CYP3A4 induction was assessed by means of the ratio of 6β‐OH‐cortisol to cortisol in urine.[10], [11], [12], [13], [14] Cortisol concentrations in urine were determined by using a radioimmunoassay method based on competition between labeled antigens and antigens on the specific sites of the antiserum coated on the tubes. At the end of the incubation period, the liquid in the tubes was removed by aspiration and the radioactivity (^125I‐cortisol) was measured using a gamma counter (Packard Cobra II auto‐gamma counter; Packard Instrument Co Inc, Meriden, Connecticut). […] The best curve was determined by the polynomial second‐order equation. The limit of quantification of the cortisol assay for the urine samples was set at 10 ng/mL.
6β‐OH‐cortisol concentrations in urine were determined by using a 2‐step, quantitative competitive enzyme immunoassay technique. […] The calibration equation was computed using SoftMax Pro software (Molecular Devices, Sunnyvale, California) by plotting the log of 6β‐OH‐cortisol concentrations versus the A/Ao (when A was standard or sample 6β‐OH‐cortisol absorbance and Ao was the standard 0 absorbance). The best line was determined by using the 4‐parameter logistic model. The limit of quantification of the 6β‐OH‐cortisol assay for the urine samples was set at 50 pg/mL. […]

## O=c1nc(OC[C@@H]2COCCO2)cc2n1CCc1cc(C#CC3CC3)ccc1-2 [GLPG1205, 9‐cyclopropylethynyl‐2‐((S)‐1‐[1,4]dioxan‐2‐ylmethoxy)‐6,7‐dihydropyrimido[6,1‐a]isoquinolin‐4‐one]
  6β‐OH‐cortisol/cortisol ratio in urine: No significant day and dose effects; also recorded: did not impact
